BindingDB's records for doi:10.1074/jbc.M114.556381 (Central South University, 2014)
pIC50: −log10 of the molar value.

Biological target: Prokineticin receptor 2 (Homo sapiens, UniProt Q8NFJ6)
Assay: Calcium Mobilization Assay
Details: pH 7.5; 37 °C
Procedure: Briefly, Chinese hamster ovary cells stably expressing the photoprotein aequorin were transiently transfected with WT or respective mutant PKR2-expressing plasmids. Two days after transfection, the cells were charged in Opti-MEM (Invitrogen) containing 8 μM coelenterazine cp (Invitrogen) at 37 °C for 2 h. Cells were detached by brief trypsinization and maintained in assay buffer (Hanks' balanced salt solution plus 10 mM HEPES, pH 7.5, and 0.1% bovine serum albumin) at approximately 5 × 10^5 cells/ml. Luminescence measurements were made using a Sirius Single Tube Luminometer (Berthold Detection Systems GmbH, Pforzheim, Germany). PK2 was serially diluted in assay buffer and mixed with cells. The luminescence was monitored for 35 s (peak 1), then 100 μl of 1% Triton X-100 was injected to lyse the cells, and the luminescence was monitored continuously for another 20 s (peak 2). The area under the curve of the peak 1 was divided by the total area under the curve of peaks 1 and 2, and the maximal responses from WT receptors were normalized to 100.

Sequence of Prokineticin receptor 2 (Q8NFJ6 whole entry): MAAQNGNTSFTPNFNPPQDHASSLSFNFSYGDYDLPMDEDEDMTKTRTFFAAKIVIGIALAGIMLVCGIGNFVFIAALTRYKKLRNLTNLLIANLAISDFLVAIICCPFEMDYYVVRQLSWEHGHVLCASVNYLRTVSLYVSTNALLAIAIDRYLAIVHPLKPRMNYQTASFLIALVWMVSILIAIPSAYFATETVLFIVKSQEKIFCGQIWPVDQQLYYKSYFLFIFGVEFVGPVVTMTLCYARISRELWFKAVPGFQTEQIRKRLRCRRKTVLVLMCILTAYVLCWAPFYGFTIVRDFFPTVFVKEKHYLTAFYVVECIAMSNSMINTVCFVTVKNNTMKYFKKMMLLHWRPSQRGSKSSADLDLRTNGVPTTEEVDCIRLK

In the case of CC(C)CN(Cc1cc(Cl)c2c(c1)OCCCO2)C(=O)C1CCN(Cc2ccccc2)C1 (racemic) [US8722896, (+/-)-1-Benzyl-N-(9-chloro-3,4-dihydro-2H-1,5-benzodioxepin-7-ylmethyl)-N-isobutylpyrrolidine-3-carboxamide], the pIC50 was 6.99.
